Experimental data taken from paper PMC5880808, “A lever-like transduction pathway for long-distance chemical- and mechano-gating of the mechanosensitive Piezo1 channel” (Nature Communications, 2018).

Key:
mPiezo1 = biological target: T1, mPiezo1 (Mus musculus, UniProt E2JF22); assay: FLIPR GCAMP6s Ca2+ response of transfected HEK293T cells; assay type: cell-based; details: for EC50: Boltzmann fit, vector signal subtracted
T1 construct: The full-length mPiezo1 has 2547 amino acids in each monomer; expressed in transfected cells; host or cells: HEK293T
Source text: Pharmacological compounds are invaluable tools for probing the structure-function relationship of ion channels. To identify specific chemical activators of Piezo channels, we have used the fluorescent imaging plate reader (FLIPR) in a 96-well format to screen about 3000 compounds for those that can evoke Ca^2+ increase in human embryonic kidney 293T (HEK293T) cells co-transfected with either mPiezo1 or mPiezo2, and the genetically encoded Ca^2+ reporter GCAMP6s (high Ca^2+ sensitivity but slow kinetics)[43]. We initially selected compounds that evoked Ca^2+ response in either Piezo1- or Piezo2-transfected cells and subsequently ruled out those nonspecific hits that caused Ca^2+ response in Piezo1-, Piezo2-, and vector-transfected cells (Fig. 2a). Eventually, we identified Jedi1 and Jedi2 as Piezo1 chemical activators, but no specific Piezo2 activators.
HEK293T cells were grown in Dulbecco’s modified Eagle medium containing 4.5 mg/ml glucose, 10% fetal bovine serum, and 1% penicillin/streptomycin. Cells were seeded in 50 μg/ml poly-D-lysine-coated 96-well plates (3 × 10^4 cells/well) and allowed to grow for about 18 h, and then co-transfected with a total of 250 ng cDNA containing Piezo1 or Piezo2 and GCaMP6s using Lipofectamine 2000 (Invitrogen, Life Technology). Two days after transfection the cells were washed with buffer containing 1× Hanks’ balanced salt solution (HBSS; 1.3 mM Ca^2+) and 10 mM HEPES (pH 7.2). The 96-well plates were then transferred to the FLIPR Tetra (Molecular Device) for monitoring the GCAMP6s fluorescence before and after addition of the compounds that were prepared in separate compound plates. For the initial screening, we screened about 3000 compounds derived from either the chemical library collected in Dr. Yu Rao’s lab, which is composed of different classes of heterocycles, including various drug scaffold or the Maybridge Ro3 Diversity Fragment Library purchased from Maybridge (Cambridge, UK), which consists of 2500 fragment compounds with a molecular weight below 350 and high rule of three compliance. Each compound was tested at a final concentration of 200 μM. Approximately 20 positive hits were selected for further testing in Piezo1-, Piezo2-, or vector-transfected cells. For subsequent characterizations, Jedi1 was purchased from the company of Alfa Aesar, while Jedi2 and Yoda1 were synthesized in the laboratories of Drs. Wei He and Liansuo Zu, respectively. See the Supplementary Experiment Procedures for the chemical synthesis. The dose response measurement by FLIPR was similar to previously described.

Human Piezo1 (hPiezo1) = biological target: T2, Human Piezo1 (hPiezo1) (Homo sapiens, UniProt Q92508); assay: Fura-2 single-cell Ca2+ imaging of hPiezo1-expressing cells; assay type: cell-based
T2 construct: expressed in transfected cells; host or cells: HEK293T
Experimental: (§1) Fura-2 single-cell Ca^2+ imaging was performed according to the previous protocol. In brief, mCherry-Piezo1 cDNA (1 μg)-transfected HEK293T cells were plated onto 12-mm round glass coverslips, which were coated with poly-D-lysine and placed in 24-well plates, and subject to Fura-2 single-cell Ca^2+ imaging about 36 h post transfection. Cells were washed with buffer containing 1× HBSS (1.3 mM Ca^2+) and 10 mM HEPES (pH 7.2), incubated with 2.5 μM Fura-2 and 0.05% Pluronic F-127 (Life Technologies) for 30 min, then washed again with the previously mentioned buffer. The coverslip was mounted into an inverted Nikon-Tie microscope equipped with a CoolSNAP charge-coupled devise (CCD) camera and Lambda XL light box (Sutter Instrument), and mCherry-positive and -negative cells were selected for measurement of the 340/380 ratio with a ×20 objective (numerical aperture 0.75) using the MetaFluor Fluorescence Ratio Imaging software (Molecular Device).

[1] = test system: mPiezo1 mutants L1342A/L1345A; L1342D/L1345D; L1342S/L1345S; L1342A; L1345A; assay: Single-cell Ca2+ imaging or FLIPR, L1342/L1345 mutants; assay type: cell-based, mouse; details: all five mutants, 1 mM Jedi1, 30 μM Yoda1
Experimental: HEK293T cells were grown in Dulbecco’s modified Eagle medium containing 4.5 mg/ml glucose, 10% fetal bovine serum, and 1% penicillin/streptomycin. Cells were seeded in 50 μg/ml poly-D-lysine-coated 96-well plates (3 × 10^4 cells/well) and allowed to grow for about 18 h, and then co-transfected with a total of 250 ng cDNA containing Piezo1 or Piezo2 and GCaMP6s using Lipofectamine 2000 (Invitrogen, Life Technology). Two days after transfection the cells were washed with buffer containing 1× Hanks’ balanced salt solution (HBSS; 1.3 mM Ca^2+) and 10 mM HEPES (pH 7.2). The 96-well plates were then transferred to the FLIPR Tetra (Molecular Device) for monitoring the GCAMP6s fluorescence before and after addition of the compounds that were prepared in separate compound plates. […]
Fura-2 single-cell Ca^2+ imaging was performed according to the previous protocol. […] The coverslip was mounted into an inverted Nikon-Tie microscope equipped with a CoolSNAP charge-coupled devise (CCD) camera and Lambda XL light box (Sutter Instrument), and mCherry-positive and -negative cells were selected for measurement of the 340/380 ratio with a ×20 objective (numerical aperture 0.75) using the MetaFluor Fluorescence Ratio Imaging software (Molecular Device).

mPiezo1 Q1344A = biological target: T3, mPiezo1 Q1344A (Mus musculus, UniProt E2JF22, Q1344A); assay: Fura-2 single-cell Ca2+ imaging, Q1344A mutant; assay type: cell-based; details: 1 mM Jedi1, 30 µM Yoda1
T3 construct: The full-length mPiezo1 has 2547 amino acids in each monomer; mCherry; expressed in transfected cells; host or cells: HEK293T
Experimental: as §1

[2] = parameters: method as in PMID 26001275; details: up; cited from earlier work
Piezo1 = test system: Piezo1; parameters: method as in PMID 26001275; details: read-out: estimated EC50; cited from earlier work
[3] = test system: mPiezo1 loop deletion mutants ΔL15-16 (657-677) and ΔL19-20 (870–921); parameters: method as in PMID 29469092; details: ΔL15-16 and ΔL19-20; cited from earlier work
[4] = test system: mPiezo1 loop deletion mutants ΔL15-16 (657-677) and ΔL19-20 (870–921); parameters: method as in PMID 29469092; details: ΔL15-16 and ΔL19-20; cited from earlier work; remark: listed apart in the source

T1 sequence (E2JF22 whole entry): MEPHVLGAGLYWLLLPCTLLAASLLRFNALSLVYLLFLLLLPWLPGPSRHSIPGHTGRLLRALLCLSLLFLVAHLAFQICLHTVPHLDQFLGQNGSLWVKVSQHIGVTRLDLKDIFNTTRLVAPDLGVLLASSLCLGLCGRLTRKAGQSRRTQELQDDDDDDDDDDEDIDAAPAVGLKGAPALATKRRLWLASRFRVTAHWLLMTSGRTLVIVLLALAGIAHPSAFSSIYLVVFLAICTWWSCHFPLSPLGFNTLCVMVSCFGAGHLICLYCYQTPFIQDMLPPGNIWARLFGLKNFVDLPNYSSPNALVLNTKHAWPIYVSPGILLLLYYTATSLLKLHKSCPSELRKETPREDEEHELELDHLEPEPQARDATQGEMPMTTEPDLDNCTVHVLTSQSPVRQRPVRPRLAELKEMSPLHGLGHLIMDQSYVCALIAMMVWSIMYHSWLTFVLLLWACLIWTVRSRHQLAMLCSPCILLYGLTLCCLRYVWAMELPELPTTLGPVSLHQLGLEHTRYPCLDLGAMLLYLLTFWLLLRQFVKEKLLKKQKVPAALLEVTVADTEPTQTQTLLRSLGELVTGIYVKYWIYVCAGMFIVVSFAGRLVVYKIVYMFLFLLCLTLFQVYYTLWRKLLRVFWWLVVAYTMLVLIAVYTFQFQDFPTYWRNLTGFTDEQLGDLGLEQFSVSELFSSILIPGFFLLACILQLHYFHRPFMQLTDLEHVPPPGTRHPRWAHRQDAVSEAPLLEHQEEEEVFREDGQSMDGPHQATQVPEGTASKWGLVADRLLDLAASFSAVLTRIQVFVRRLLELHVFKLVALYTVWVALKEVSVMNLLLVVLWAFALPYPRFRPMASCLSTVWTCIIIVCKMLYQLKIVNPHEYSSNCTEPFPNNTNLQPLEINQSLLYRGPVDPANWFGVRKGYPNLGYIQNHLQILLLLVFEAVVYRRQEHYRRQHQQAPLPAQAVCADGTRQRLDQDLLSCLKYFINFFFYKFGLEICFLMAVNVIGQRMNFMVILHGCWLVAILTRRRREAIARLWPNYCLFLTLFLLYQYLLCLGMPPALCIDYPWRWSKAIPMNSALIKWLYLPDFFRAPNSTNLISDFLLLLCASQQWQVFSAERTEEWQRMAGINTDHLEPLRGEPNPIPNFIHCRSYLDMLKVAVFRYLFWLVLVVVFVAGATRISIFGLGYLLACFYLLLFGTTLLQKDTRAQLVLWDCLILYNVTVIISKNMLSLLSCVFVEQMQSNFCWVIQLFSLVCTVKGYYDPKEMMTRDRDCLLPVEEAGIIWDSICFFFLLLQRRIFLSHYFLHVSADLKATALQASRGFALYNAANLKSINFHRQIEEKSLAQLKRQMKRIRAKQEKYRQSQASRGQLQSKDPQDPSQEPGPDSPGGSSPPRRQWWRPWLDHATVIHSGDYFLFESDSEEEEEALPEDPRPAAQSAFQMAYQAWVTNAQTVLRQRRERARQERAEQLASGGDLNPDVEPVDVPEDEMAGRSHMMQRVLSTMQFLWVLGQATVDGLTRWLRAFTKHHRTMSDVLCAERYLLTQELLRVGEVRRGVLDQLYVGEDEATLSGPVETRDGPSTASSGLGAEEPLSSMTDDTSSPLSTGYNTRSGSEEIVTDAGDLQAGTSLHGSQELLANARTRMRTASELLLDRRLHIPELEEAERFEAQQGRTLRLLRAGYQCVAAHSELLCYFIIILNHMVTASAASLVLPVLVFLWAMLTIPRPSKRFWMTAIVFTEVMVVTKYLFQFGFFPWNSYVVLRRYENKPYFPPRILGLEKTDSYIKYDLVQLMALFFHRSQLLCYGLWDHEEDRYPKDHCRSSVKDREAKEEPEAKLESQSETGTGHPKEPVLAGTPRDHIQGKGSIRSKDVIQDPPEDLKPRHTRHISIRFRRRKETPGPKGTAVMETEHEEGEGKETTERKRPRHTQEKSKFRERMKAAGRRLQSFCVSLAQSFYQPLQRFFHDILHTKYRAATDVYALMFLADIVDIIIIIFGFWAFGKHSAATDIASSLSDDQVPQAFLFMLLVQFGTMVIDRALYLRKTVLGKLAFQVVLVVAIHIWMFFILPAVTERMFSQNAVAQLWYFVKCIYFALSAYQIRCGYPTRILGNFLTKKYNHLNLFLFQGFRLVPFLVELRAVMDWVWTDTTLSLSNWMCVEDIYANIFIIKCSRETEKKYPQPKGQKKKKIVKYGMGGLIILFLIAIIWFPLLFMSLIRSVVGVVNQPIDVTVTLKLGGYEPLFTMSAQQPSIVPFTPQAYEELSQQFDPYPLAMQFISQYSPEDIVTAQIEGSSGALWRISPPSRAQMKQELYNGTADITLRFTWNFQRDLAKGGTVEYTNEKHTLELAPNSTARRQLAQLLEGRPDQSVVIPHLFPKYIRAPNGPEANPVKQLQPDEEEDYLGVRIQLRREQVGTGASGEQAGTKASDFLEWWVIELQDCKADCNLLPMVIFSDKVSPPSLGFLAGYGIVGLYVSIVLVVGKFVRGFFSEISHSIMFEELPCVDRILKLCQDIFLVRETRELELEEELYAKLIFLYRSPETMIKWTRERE
T3 sequence (E2JF22 whole entry Q1344A): as the sequence (E2JF22 whole entry) above, with Q1344A counted along it
T2 sequence (Q92508 whole entry): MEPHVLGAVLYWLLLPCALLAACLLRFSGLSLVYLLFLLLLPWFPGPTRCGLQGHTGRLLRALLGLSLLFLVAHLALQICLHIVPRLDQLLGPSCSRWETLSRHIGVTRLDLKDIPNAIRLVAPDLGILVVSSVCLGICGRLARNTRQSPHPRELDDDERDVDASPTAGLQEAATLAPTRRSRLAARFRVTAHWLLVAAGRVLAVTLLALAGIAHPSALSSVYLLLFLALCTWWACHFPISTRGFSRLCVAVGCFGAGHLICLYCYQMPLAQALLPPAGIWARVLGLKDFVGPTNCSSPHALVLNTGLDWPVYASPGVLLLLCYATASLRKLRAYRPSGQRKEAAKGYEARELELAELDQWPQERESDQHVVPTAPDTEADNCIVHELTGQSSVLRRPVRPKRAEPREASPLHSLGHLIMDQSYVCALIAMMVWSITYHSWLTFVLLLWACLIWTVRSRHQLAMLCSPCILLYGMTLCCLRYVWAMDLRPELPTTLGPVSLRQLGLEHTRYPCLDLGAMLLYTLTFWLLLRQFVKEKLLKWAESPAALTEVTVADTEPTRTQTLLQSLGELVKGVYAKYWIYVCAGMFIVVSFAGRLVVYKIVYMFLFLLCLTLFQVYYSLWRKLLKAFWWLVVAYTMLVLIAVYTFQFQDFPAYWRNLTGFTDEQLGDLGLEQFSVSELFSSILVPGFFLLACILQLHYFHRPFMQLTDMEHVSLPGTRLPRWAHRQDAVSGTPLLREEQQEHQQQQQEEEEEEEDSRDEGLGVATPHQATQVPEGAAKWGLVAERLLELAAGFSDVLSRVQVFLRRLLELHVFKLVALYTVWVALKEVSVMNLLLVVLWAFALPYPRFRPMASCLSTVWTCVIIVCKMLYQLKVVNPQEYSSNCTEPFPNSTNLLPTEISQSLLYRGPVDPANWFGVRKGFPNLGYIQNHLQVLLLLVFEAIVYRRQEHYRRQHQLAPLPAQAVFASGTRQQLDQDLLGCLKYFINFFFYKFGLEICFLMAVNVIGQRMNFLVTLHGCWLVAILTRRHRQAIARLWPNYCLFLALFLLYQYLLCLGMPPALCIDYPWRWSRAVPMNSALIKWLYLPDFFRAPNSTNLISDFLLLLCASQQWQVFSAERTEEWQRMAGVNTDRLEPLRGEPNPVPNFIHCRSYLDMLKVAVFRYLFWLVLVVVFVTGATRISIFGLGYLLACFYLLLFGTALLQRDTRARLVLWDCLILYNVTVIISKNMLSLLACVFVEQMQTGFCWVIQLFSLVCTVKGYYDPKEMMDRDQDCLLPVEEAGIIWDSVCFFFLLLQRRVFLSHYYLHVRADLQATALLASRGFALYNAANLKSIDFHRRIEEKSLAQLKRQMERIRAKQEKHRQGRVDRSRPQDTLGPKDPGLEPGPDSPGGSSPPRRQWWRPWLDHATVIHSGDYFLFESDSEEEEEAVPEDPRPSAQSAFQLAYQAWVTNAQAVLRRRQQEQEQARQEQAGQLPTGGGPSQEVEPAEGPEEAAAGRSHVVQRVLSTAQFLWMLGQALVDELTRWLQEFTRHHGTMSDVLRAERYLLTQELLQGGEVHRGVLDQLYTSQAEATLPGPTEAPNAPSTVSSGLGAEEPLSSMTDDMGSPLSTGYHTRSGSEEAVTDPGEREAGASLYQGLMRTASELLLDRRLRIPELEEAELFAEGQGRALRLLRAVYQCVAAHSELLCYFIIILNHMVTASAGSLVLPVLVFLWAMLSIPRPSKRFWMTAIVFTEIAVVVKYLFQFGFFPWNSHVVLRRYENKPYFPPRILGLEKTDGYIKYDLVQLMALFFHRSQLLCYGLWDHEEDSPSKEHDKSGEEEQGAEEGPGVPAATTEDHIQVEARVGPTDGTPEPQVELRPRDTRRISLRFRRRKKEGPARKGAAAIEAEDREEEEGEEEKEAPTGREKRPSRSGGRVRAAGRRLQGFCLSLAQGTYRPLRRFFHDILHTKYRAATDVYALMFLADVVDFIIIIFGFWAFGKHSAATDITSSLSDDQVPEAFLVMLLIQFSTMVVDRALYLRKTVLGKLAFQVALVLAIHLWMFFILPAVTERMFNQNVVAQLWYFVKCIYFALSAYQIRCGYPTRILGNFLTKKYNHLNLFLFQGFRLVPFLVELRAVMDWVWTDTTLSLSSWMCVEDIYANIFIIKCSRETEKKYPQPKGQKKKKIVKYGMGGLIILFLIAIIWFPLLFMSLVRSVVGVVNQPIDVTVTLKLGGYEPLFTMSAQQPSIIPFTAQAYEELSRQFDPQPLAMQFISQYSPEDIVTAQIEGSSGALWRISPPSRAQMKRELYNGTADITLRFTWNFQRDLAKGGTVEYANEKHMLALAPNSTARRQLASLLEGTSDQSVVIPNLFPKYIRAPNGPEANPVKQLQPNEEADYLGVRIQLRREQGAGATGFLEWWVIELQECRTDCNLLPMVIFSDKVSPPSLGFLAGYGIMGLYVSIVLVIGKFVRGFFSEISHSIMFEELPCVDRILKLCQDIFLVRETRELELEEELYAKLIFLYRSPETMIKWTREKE

Row | SMILES | Hill coefficient (mPiezo1) | EC50 (mPiezo1) | Ca2+ response (Fura-2) (Human Piezo1 (hPiezo1)) | compound-evoked Ca2+ responses of L1342/L1345 mutants [1] | effect of the Q1344A mutation on compound-induced Ca2+ responses (mPiezo1 Q1344A) | water solubility [2] | EC50 (Piezo1) | ability to evoke Ca2+ responses in loop deletion mutants [3] | ability to potentiate poking-induced currents of loop deletion mutants [4]
1 | Cc1oc(-c2ccccc2)cc1C(=O)O [Jedi1] | ~ 1.5 | ~200 µM | responded to Jedi1 as well | completely lost | did not affect | – | – | – | –
2 | Clc1cccc(Cl)c1CSc1nnc(-c2cnccn2)s1 [Yoda1, reference compound] | – | – | – | completely lost | did not affect | ~ 30 μM | ~17.1 µM | retained its ability | retained its ability
3 | Cc1oc(-c2cccs2)cc1C(=O)O [Jedi2] | 1.6 | 158 µM | – | – | – | – | – | – | –
